In this assay the test system is human bladder stroma fibroblasts. Briefly: Cell work: fibroblast viability (prestoblue) after mitomycin C treatment. It counts as cell-based. The settings on record: 3 days of drug treatment. As to the method: FIGS. 13(A) and (B) are graphs showing (A) relative cell count vs MMC concentrations (μg/mL), and (B) dose-response curve.
In each well of a 96 well cell culture plate, 3000 human bladder stroma fibroblasts cells are seeded. After one day of seeding, different concentrations of mitomycin C dissolved in cell media (200 μL) were added to the well. After 3 days of drug treatment, the drug media was removed and the well added with 70 μL of a cell viability reagent, prestoblue, in the ratio of 9:1 (cell media: prestoblue).

Consider one compound from patent US11357651B2, “Stent assembly and method of preparing the stent assembly” (Nanyang Technological University, priority 2015, dated 2022).

`CO[C@@]12[C@H](COC(N)=O)C3=C(C(=O)C(C)=C(N)C3=O)N1C[C@@H]1N[C@@H]12` [MMC, mitomycin C]: the GI50 entry is on record as “about 0.115 μg/mL” and the “minimum concentration of MMC required to cause death of / inhibit proliferation of fibroblasts” value worked out at 0.01 µg/mL.
